One assay deals with Glutamate NMDA receptor. Nature of the assay: Inhibition of [3H]-TCP binding to NMDA receptors on rat brain membranes. Type of assay: cell membranes, Membrane.
Assay [1] relates to Mus musculus. The assay is described as follows: Compound was tested up to a dose of 80mg/Kg, ip; did not produce effects such as body rolling, ataxia and hyperlocomotion. Type of assay: functional, organism-based.
The subject of assay [2] is Mus musculus. The assay is described as follows: Tested in vivo for the antagonistic activity after 0.4 ug/mouse of NMDA intracerebral administration in mice. Type of assay: functional. As to conditions: central.
The test system of assay [3] is Gerbillinae. The assay is described as follows: Tested for the percent reduction in CA1 damage of the hippocampus (gerbil ischemia-induced cell death) after 60 mg/kg intraperitoneal administration,45 min pre and 5 min post ischemia event. The assay is classed as functional.
The next assay concerns Rattus norvegicus. Nature of the assay: Tested […] for the NMDA-induced cytotoxicity at a concentration of 100 uM in rat cortical cell cultures. Type of assay: functional.
In assay [4] the test system is Mus musculus. Nature of the assay: Compound was tested at a dose of 20-40mg/Kg, ip; produced effects such as body rolling, ataxia and hyperlocomotion. The assay is classed as functional, organism-based.
The subject of assay [5] is Mus musculus. Nature of the assay: Compound was tested at a dose of 0.5-1mg/Kg, ip; produced effects such as body rolling, ataxia and hyperlocomotion. The assay is classed as functional, organism-based.
For assay [6], the system named is Gerbillinae. Nature of the assay: Tested for the percent protection from CA1 damage of the hippocampus (gerbil ischemia-induced cell death) after 1 mg/kg intraperitoneal administration, 45 min pre and 5 min post ischemia event. Type of assay: functional.

Molecules are shown by their SMILES. Calls of active or inactive are those of the source. No cut-off for these calls is given here.

A word on the IC50: it is the point on the concentration scale where inhibition reaches its midpoint. Low values mean greater potency in that assay, high ones weaker potency in that assay. `CN1Cc2ccccc2C12CCCCc1ccccc12` (centres undefined) had an IC50 at Glutamate NMDA receptor of 1700 nM. In other words, the single-digit micromolar range.
`CCCN1Cc2ccccc2C12CCCc1sccc12` (centres undefined) returned a half-inhibitory concentration (IC50) on Glutamate NMDA receptor of 1500 nM.
As usually defined, the ED50 is the midpoint of the dose-response relation. Read a high ED50 as a need for a large dose. On to `CN1Cc2ccccc2C12CCCc1sccc12.O=C(O)C(=O)O` (centres undefined), for which the outcome in the assay with Mus musculus [1] was inactive. Further, the 50% effect level with Mus musculus [2] (ED50) was put at a dose of 32 mg/kg. In addition, the Reduction in the assay with Gerbillinae [3] is 84%. This compound also gave an IC50 on Glutamate NMDA receptor of 490 nM. The same compound yielded a Protection with Rattus norvegicus of 68%.
`Oc1ccc2c(c1)C1(CCCc3ccccc31)NC2` (centres undefined) had an IC50 on Glutamate NMDA receptor of 240 nM. This lies in the sub-micromolar range.
`CCCN1Cc2ccccc2C12CCCc1ccccc12` (centres undefined) had an IC50 at Glutamate NMDA receptor of 1600 nM.
`CN1Cc2ccccc2C12CCc1ccccc12` (centres undefined): the IC50 at Glutamate NMDA receptor was found to be 65 nM.
Compound `CN1Cc2ccc(O)cc2C12CCCCc1ccccc12` (centres undefined) displayed an IC50 at Glutamate NMDA receptor of 160 nM.
Take `COc1cccc2c1CCC21NCc2ccccc21` (centres undefined): the IC50 on Glutamate NMDA receptor turned out to be 5000 nM.
`c1ccc2c(c1)CCCCC21NCc2ccccc21` (centres undefined) registered an IC50 on Glutamate NMDA receptor of 1700 nM.
In turn, `Oc1cccc2c1CCC21NCc2ccccc21` (centres undefined) had an IC50 at Glutamate NMDA receptor of 730 nM.
In turn, `CCCN1Cc2ccccc2C12CCCCc1ccccc12` (centres undefined) yielded an IC50 on Glutamate NMDA receptor of 17000 nM.
In turn, `c1ccc2c(c1)CCCC21NCc2ccccc21` (centres undefined) registered a half-inhibitory concentration (IC50) on Glutamate NMDA receptor of 890 nM. Against the preceding compound, the IC50 is about 19-fold lower.
The compound `c1ccc2c(c1)CNC21CCCc2sccc21` (centres undefined) displayed an IC50 at Glutamate NMDA receptor of 600 nM. This IC50 and that of the compound before are within 1.5-fold of each other.
On to `CN1Cc2ccc(O)cc2C12CCCc1ccccc12` (centres undefined), for which, at Glutamate NMDA receptor, the IC50 came to 200 nM.
Take `CCCN1Cc2ccccc2C12CCc1ccccc12` (centres undefined): at Glutamate NMDA receptor, the IC50 was determined as 440 nM.
On to `CN1Cc2ccccc2C12CCCc1ccccc12` (centres undefined), for which the IC50 on Glutamate NMDA receptor worked out at 1500 nM.
Take `COc1ccc2c(c1)C1(CCCCc3ccccc31)NC2` (centres undefined): the IC50 on Glutamate NMDA receptor turned out to be 4800 nM. Compared with the last compound, the IC50 is about 3.2-fold higher.
Turning to `COc1ccc2c(c1)C1(CCCCc3ccccc31)N(C)C2` (centres undefined), the half-inhibitory concentration (IC50) on Glutamate NMDA receptor was found to be 2700 nM. This IC50 lies about 1.8-fold lower than the previous one.
On Glutamate NMDA receptor, `c1ccc2c(c1)CCC21NCc2ccccc21` (centres undefined) showed an IC50 of 980 nM. Moreover, in the assay with Mus musculus [4], the result was Active.
Consider `COc1ccc2c(c1)C1(CCCc3ccccc31)N(C)C2` (centres undefined), for which the IC50 on Glutamate NMDA receptor came to 790 nM.
The compound `CCCN1Cc2ccc(OC)cc2C12CCCCc1ccccc12` (centres undefined) yielded an IC50 at Glutamate NMDA receptor of 17000 nM.
With `C[C@]12N[C@H](Cc3ccccc31)c1ccccc12.Cl` [DIZOCILPINE HYDROCHLORIDE], the result with Mus musculus [5] was Active. Besides, the Protection with Gerbillinae [6] amounted to 42%.
At Glutamate NMDA receptor, `COc1ccc2c(c1)C1(CCCc3ccccc31)NC2` (centres undefined) had an IC50 of 4000 nM.

These data come from ChEMBL document CHEMBL1150554, “Synthesis and activity of spiroisoindolines as novel noncompetitive NMDA antagonists” (Bioorg Med Chem Lett, 1993).
